# Measurements from patent US8273775B2, “Non-steroidal brassinosteroid mimetic” (priority 2006, dated 2012).
# System: gene expression in Col-0 seedling shoots
# Assay: Microarray analysis (ATH1 Affymetrix) after BL or abrasin treatment
# Assay type: in vivo, Arabidopsis
# Conditions: 30 min
# Experimental: FIG. 14: Clustering of gene expression profiles by QT-clust analysis. Clusters illustrating the major patterns of the data sets. Points: BIK-30: 30 μM abrasin 30 min; BL-30: 1 μM brassinolide 30 min; DMSO-30: control DMSO 30 min; BIK-120: 30 μM abrasin 120 min; BL-120: 1 μM brassinolide 120 min; DMSO-120: control DMSO 120 min.
# Col-0 seeds were germinated vertically on ½ MS medium for 7 days under 16 h light/8 h dark cycles. The seedlings were overlaid with liquid ½ MS medium containing 1 μM brassinolide (BL, Fuji Chemical Industries, Ltd., Toyama, Japan), 30 μM abrasin (BIK, ChemBridge Corporation) and DMSO and treated for 30 and 120 min. The shoot parts were collected for RNA isolation. All sampling points were performed in three independent experiments. RNA was extracted using RNeasy kit (Qiagene). […] total RNA per array was used to hybridise the ATH1 Affymetrix Arabidopsis arrays according to standard procedure. The overrepresentation analyses were performed using BiNGO software (Maere et al., 2005).
# We performed a microarray analysis using the Arabidopsis whole genome chip (Affymetix) to determine whether abrasin activated the expression of BR-inducible genes at transcriptional level. Wild-type Col-0 seedlings were exposed to 1 μM BL, 30 μM ABRASIN and DMSO (mock-treatment) for two time points (30 min and 120 min) and the shoot parts were collected for RNA isolation. The analysis of the variance of the normalized gene expression data took in account the variability parameters affecting the expression level: type of hormone treatment, duration of treatment and the interaction between these two.
compound,measurement,setting,value
"O=C(O)CCC(=O)Nc1ccc(Br)cn1 [abrasin, 4-[(5-bromo-2-pyridinyl)amino]-4-oxobutanoic acid]",Fold-change AT4G16563 aspartyl protease family protein,,1.16
same,Fold-change AT4G16670 expressed protein,,0.79
same,Fold-change AT4G16780 homeobox-leucine zipper protein 4 (HAT4)/HD-ZIP protein,,0.54
same,Fold-change AT4G17250 expressed protein,,1.20
same,Fold-change AT4G17460 homeobox-leucine zipper protein 1 (HAT1)/HD-ZIP protein 1,,0.29
same,Fold-change AT4G21510 F-box family protein,,1.03
same,Fold-change AT4G23030 MATE efflux protein-related,,1.60
same,Fold-change AT4G23070 rhomboid family protein,,2.00
same,Fold-change AT4G23810 WRKY family transcription factor,,5.76
same,"Fold-change AT4G24160 hydrolase, alpha/beta fold family protein",,1.42
same,Fold-change AT4G25620 hydroxyproline-rich glycoprotein family protein,,0.51
same,Fold-change AT4G25780 pathogenesis-related protein,,0.12
same,Fold-change AT4G27970 C4-dicarboxylate transporter/malic acid transport family protein,,2.43
same,Fold-change AT4G28240 wound-responsive protein-related,,0.49
same,"Fold-change AT4G28490 leucine-rich repeat transmembrane protein kinase, putative",,1.20
same,Fold-change AT4G28703 expressed protein,,1.95
same,Fold-change AT4G28780 GDSL-motif lipase/hydrolase family protein,,1.00
same,Fold-change AT4G29070 expressed protein,,0.78
same,Fold-change AT4G30080 transcriptional factor B3 family protein,,0.89
same,Fold-change AT4G31020 expressed protein,,2.67
same,Fold-change AT4G32280 auxin-responsive AUX/IAA family protein (IAA29),,0.32
same,Fold-change AT4G33050 calmodulin-binding family protein,,2.38
same,Fold-change AT4G33700 CBS domain-containing protein,,0.73
same,Fold-change AT4G34610 homeodomain-containing protein,,1.02
same,Fold-change AT4G36110 auxin-responsive protein,,1.16
same,Fold-change AT4G36780 brassinosteroid signalling positive regulator-related,,0.49
same,Fold-change AT4G37240 expressed protein,,0.79
same,Fold-change AT4G37290 expressed protein,,0.95
same,Fold-change AT4G37590 phototropic-responsive NPH3 family protein,,1.04
same,Fold-change AT4G38840 auxin-responsive protein (SAUR14),,1.01
same,Fold-change AT4G38850 auxin-responsive protein (SAUR-AC1),,1.00
same,Fold-change AT4G38860 auxin-responsive protein (SAUR16),,0.79
same,Fold-change AT4G39400 brassinosteroid insensitive 1 (BRI1),,0.71
same,Fold-change AT5G02020 expressed protein,,1.01
same,Fold-change AT5G05690 cytochrome P450 90A1 (CYP90A1) (CYP90) (CPD),,0.63
same,Fold-change AT5G07690 myb family transcription factor (MYB29),,0.58
same,Fold-change AT5G08130 basic helix-loop-helix (bHLH) family protein (BIM2),,0.76
same,Fold-change AT5G12050 expressed protein,,0.52
same,Fold-change AT5G13180 no apical meristem (NAM) family protein,,0.77
same,Fold-change AT5G13740 sugar transporter family protein,,0.81
same,Fold-change AT5G14730 expressed protein,,0.38
same,Fold-change AT5G16200 50S ribosomal protein-related,,0.37
same,Fold-change AT5G16980 NADP-dependent oxidoreductase,,1.11
same,Fold-change AT5G18750 DNAJ heat shock N-terminal domain-containing protein,,1.91
same,Fold-change AT5G19200 short-chain dehydrogenase/reductase (SDR) family protein,,1.00
same,Fold-change AT5G19340 expressed protein,,0.83
same,Fold-change AT5G24030 C4-dicarboxylate transporter/malic acid transport family protein,,2.35
same,Fold-change AT5G24660 expressed protein,,2.43
same,Fold-change AT5G25240 expressed protein,,0.74
same,Fold-change AT5G25930 leucine-rich repeat family protein,,2.65
same,Fold-change AT5G27350 sugar-porter family protein 1 (SFP1),,1.07
same,Fold-change AT5G27670 histone H2A,,0.79
same,Fold-change AT5G38310 expressed protein,,1.00
same,"Fold-change AT5G38990; AT5G39000 [AT5G38990, protein kinase family protein",,1.40
same,Fold-change AT5G39050 transferase family protein,,1.49
same,Fold-change AT5G39610 no apical meristem (NAM) family protein,,0.72
same,Fold-change AT5G39970 expressed protein,,1.42
same,Fold-change AT5G42830 transferase family protein,,1.03
same,Fold-change AT5G47370 homeobox-leucine zipper protein 2 (HAT2),,0.51
same,Fold-change AT5G48070 putative xyloglucan endotransglycosylase/hydrolase,,1.48
same,Fold-change AT5G48540 33 kDa secretory protein-related,,2.45
same,Fold-change AT5G51550 phosphate-responsive 1 family protein,,1.02
same,"Fold-change AT5G54490 calcium-binding EF-hand protein, putative",,0.73
same,Fold-change AT5G54860 integral membrane transporter family protein,,1.69
same,Fold-change AT5G55970 zinc finger (C3HC4-type RING finger) family protein,,0.96
same,Fold-change AT5G56980 expressed protein,,0.43
same,Fold-change AT5G57190 phosphatidylserine decarboxylase,,1.32
same,Fold-change AT5G57780 expressed protein,,0.35
same,Fold-change AT5G59080 expressed protein,,0.46
same,Fold-change AT5G60200 Dof-type zinc finger domain-containing protein,,1.36
same,Fold-change AT5G60270 lectin protein kinase family protein,,0.96
same,Fold-change AT5G60630 expressed protein,,0.99
same,Fold-change AT5G61600 encodes a member of the ERF (ethylene response factor),,0.53
same,Fold-change AT5G62360 invertase/pectin methylesterase inhibitor family protein,,0.52
same,Fold-change AT5G65310 homeobox-leucine zipper protein 5 (HB-5)/HD-ZIP transcription factor 5,,0.90
same,Fold-change AT5G66420 expressed protein,,0.92
same,Fold-change AT5G66590 allergen V5/Tpx-1-related family protein,,0.53
same,Fold-change AT5G67450 zinc finger (C2H2 type) protein 1 (AZF1),,6.17
same,Fold-change of gene AT4G16140 (proline-rich family protein),"245479_at, Cluster 6",1.16
same,Fold-change of gene AT4G15260 (UDP-glucoronosyl/UDP-glucosyl transferase family protein),"245543_at, Cluster 7",1.41
same,"Fold-change of gene AT5G09440 (phosphate-responsive protein, putative)","245885_at, Cluster 5",0.38
same,Fold-change of gene AT1G77380 (amino acid carrier),"246389_at, Cluster 10",1.32
same,Fold-change of gene AT5G15740 (expressed protein),"246516_at, Cluster 5",0.78
same,Fold-change of gene AT5G65300 (expressed protein),"247177_at, Cluster 5",0.31
same,Fold-change of gene AT5G64890 (expressed protein),"247205_at, Cluster 10",1.01
same,Fold-change of gene AT5G63790 (no apical meristem (NAM) family protein),"247351_at, Cluster 9",0.88
same,Fold-change of gene AT5G62630 (expressed protein),"247444_at, Cluster 7",1.62
same,Fold-change of gene AT5G60850 (Dof-type zinc finger domain-containing protein),"247601_at, Cluster 10",0.51
same,Fold-change of gene AT5G59510 (expressed protein),"247704_at, Cluster 9",1.00
same,Fold-change of gene AT5G58660 (oxidoreductase. 2OG-Fe(II) oxygenase family protein),"247774_at, Cluster 5",1.15
same,Fold-change of gene AT5G54120 (expressed protein),"248190_at, Cluster 5",0.82
same,Fold-change of gene AT5G54130 (calcium-binding EF hand family protein),"248191_at, Cluster 5",0.84
same,Fold-change of gene AT5G52900 (expressed protein),"248282_at, Cluster 6",1.70
same,Fold-change of gene AT5G49100 (expressed protein),"248646_at, Cluster 9",0.72
same,Fold-change of gene AT5G18060 (auxin-responsive protein),"250012_x_at, Cluster 6",1.00
same,Fold-change of gene AT5G09800 (U-box domain-containing protein),"250493_at, Cluster 9",1.04
same,Fold-change of gene AT5G08565 (expressed protein),"250537_at, Cluster 8",0.87
same,Fold-change of gene AT5G03670 (expressed protein),"250907_at, Cluster 5",0.61
same,Fold-change of gene AT5G01740 (expressed protein),"251072_at, Cluster 5",0.33
same,Fold-change of gene AT3G63380 (calcium-transporting ATPase),"251176_at, Cluster 10",0.85
same,Fold-change of gene AT3G60690 (auxin-responsive family protein),"251342_at, Cluster 9",0.91
same,Fold-change of gene AT3G45610 (Dof-type zinc finger domain),"252586_at, Cluster 10",0.94
same,Fold-change of gene AT3G44610 (protein kinase family protein),"252646_at, Cluster 5",0.83
same,Fold-change of gene AT4G34760 (auxin-responsive family protein),"253255_at, Cluster 6",1.80
same,Fold-change of gene AT4G34138 (UDP-glucoronosyl/UDP-glucosyl transferase family protein),"253281_at, Cluster 7",1.52
same,Fold-change of gene AT4G31910 (transferase family protein),"253483_at, Cluster 5",1.46
same,Fold-change of gene AT4G30410 (expressed protein),"253617_at, Cluster 5",0.94
same,Fold-change of gene AT4G30450 (glycine-rich protein),"253629_at, Cluster 5",0.84
same,Fold-change of gene AT4G26200 (1-aminocyclopropane-1-carboxylate synthase),"253999_at, Cluster 9",1.11
same,Fold-change of gene AT4G03400 (auxin-responsive GH3 family protein),"255403_at, Cluster 6",0.81
same,Fold-change of gene AT4G02700 (sulfate transporter),"255443_at, Cluster 7",1.76
same,Fold-change of gene AT1G22190 (AP2 domain-containing transcription factor),"255926_at, Cluster 8",0.45
same,Fold-change of gene AT1G66140 (zinc finger (C2H2 type) family protein),"256528_at, Cluster 6",0.87
same,Fold-change of gene AT3G25655 (expressed protein),"256762_at, Cluster 8",1.00
same,"Fold-change of gene AT3G21420 (oxidoreductase, 2OG-Fe(II) oxygenase family protein)","256818_at, Cluster 7",1.13
same,Fold-change of gene AT3G18280 (protease inhibitor/seed storage/lipid transfer protein),"257066_at, Cluster 5",1.03
same,Fold-change of gene AT1G29440 (auxin-responsive family protein),"257506_at, Cluster 6",0.96
same,"Fold-change of gene AT3G29200 (chorismate mutase, chloroplast (CM1))","257746_at, Cluster 5",0.83
same,Fold-change of gene AT1G13260 (DNA-binding protein RAV1 (RAV1)),"259364_at, Cluster 8",0.32
same,Fold-change of gene AT1G29500 (auxin-responsive protein),"259773_at, Cluster 6",1.01
same,Fold-change of gene AT1G29510 (auxin-responsive protein),"259783_at, Cluster 6",1.02
same,Fold-change of gene AT1G29450 (auxin-responsive protein),"259784_at, Cluster 6",0.99
same,Fold-change of gene AT1G29460 (auxin-responsive protein),"259787_at, Cluster 6",1.23
same,"Fold-change of gene AT1G76690; AT1G76680 ([AT1G76690, 12-oxophytodienoate reductase (OPR2))","259875_s_at, Cluster 7",1.95
same,Fold-change of gene AT1G76620 (expressed protein),"259985_at, Cluster 8",0.90
same,Fold-change of gene AT1G63720 (expressed protein),"260243_at, Cluster 10",0.92
same,Fold-change of gene AT1G48100 (glycoside hydrolase family 28 protein),"260727_at, Cluster 8",0.92
same,Fold-change of gene AT1G12200 (flavin-containing monooxygenase family protein),"261023_at, Cluster 7",1.44
same,Fold-change of gene AT1G12845 (expressed protein),"261203_at, Cluster 6",1.66
same,Fold-change of gene AT1G15550 (gibberellin 3-beta-dioxygenase),"261768_at, Cluster 6",1.12
same,Fold-change of gene AT1G80840 (WRKY family transcription factor),"261892_at, Cluster 9",0.43
same,Fold-change of gene AT1G80080 (leucine-rich repeat family protein),"262040_at, Cluster 6",1.56
same,Fold-change of gene AT1G80130 (expressed protein),"262050_at, Cluster 8",0.90
same,Fold-change of gene AT1G21680 (expressed protein),"262505_at, Cluster 10",0.82
same,Fold-change of gene AT1G34245 (expressed protein),"262543_at, Cluster 6",1.69
same,Fold-change of gene AT1G78460 (SOUL heme-binding family protein),"263126_at, Cluster 7",1.01
same,"Fold-change of gene AT1G78820; AT1G78830 ([AT1G78820, curculin-like (mannose-binding) lectin family protein)","264279_s_at, Cluster 7",1.27
